In patent US20180311364A1, “Protease Triggered Release Of Molecules From Hydrogels” (The Trustees of the University of Pennsylvania, priority 2010, published 2018):

Assay: Triggered release of ilomastat from HA-aldehyde / HA-peptide-hydrazide hydrogel
Assay type: physicochemical
Experimental: Ilomastat was ground into a fine powder of uniform microparticles. These microparticles were suspended in the dissolved HA-aldehyde and HA-peptide-hydrazide solutions at 10 μg per 100 μL of polymer solution. At this concentration ilomastat remains a solid particle within the polymer solution. HA-aldehyde and HA-peptide-hydrazide polymers were mixed 1:1 aldehdye:hydrazide to induce crosslinking into a solid gel. The gels were incubated in phosphate buffered saline at 37° C. After 14 days less than 10% of the ilomastat was released from the gels due to hydrophobic interactions of the ilomastat in the microparticles. The gels were then exposed to collagenase 200 U/mL and the gels degraded.

ilomastat released from the gels (gels incubated in phosphate buffered saline at 37° C., after 14 days, ilomastat microparticles 10 μg per 100 μL polymer solution): less than 10%
Structure (SMILES): CNC(=O)[C@H](Cc1c[nH]c2ccccc12)NC(=O)[C@@H](CC(=O)NO)CC(C)C [ilomastat, Ilomastat]
ilomastat release after gel degradation (HPLC) (gels exposed to collagenase 200 U/mL after 14 days in PBS, gels degraded): solubilized in the larger volume of the buffer
